Reference: US20080003691A1, “Method of Detecting Conformational Change of an Amyloid Protein, a Method of Searching a Substance Having an Activity that Affects to Conformational Change of an Amyloid Protein, and Method of Searching a Therapeutic or Diagnostic Agent for Amyloid-Related Diseases” (Fuence Co., Ltd., priority 2004, published 2008)
Values belong to the molecule of their own block, whether it stands above or below them.

Key:
α-synuclein = biological target: T1, α-synuclein (Homo sapiens, UniProt P37840); test: changes in tension and elasticity of α-synuclein film measured with a mechanochemical sensor; assay type: biochemical; settings: FIG. 4
T1 construct: purchased BIOMOL International LP
Experimental: (§1) Amyloid β (1-42) (Bachem AG, Budendorf, Switzerland) was dissolved in 0.1% ammonia water at the concentration of 1 mg/mL. This solution was sprayed under dry air using an electrospry device described in WO 2002-511792 or an immobilzing device described in Japanese Patent Publication No. 2003-136005. The solution was permeated through a mask with holes of 400 μm in length and 800 μm in width, and then a film having 1 μm thickness was prepared on 1.2% polyvinyl pyrrolidone, using an electrospray method (the EDS method). Then protein was cross-linked by glutaraldehyde.
(§2) The resulting film was placed on an apparatus having a mechanochemical sensor which was described in WO 2002-503332 or U.S. Patent Publication No. 6033913, and it was immersed into 10 mM Hepes pH7.4 buffer solution (hereinafter referred to as “the buffer solution”) containing 0.15 M NaCl. The buffer solution was passed through the film existing on the detecting apparatus at the flow rate of 0.1 to 0.2 mL/min, in order to stabilize the tension of the sample film. Thereafter ZnCl2 solution dissolved in said buffer solution was passed through to detect changes in tension and elasticity (FIG. 1).
A α-synuclein (BIOMOL International LP, PA, USA) film was prepared and placed on a detecting apparatus, as described in EXAMPLE 1. […]

amyloid β (1-42) = biological target: T2, amyloid β (1-42) (Homo sapiens, UniProt P05067); test: changes in tension and elasticity of amyloid β (1-42) film measured with a mechanochemical sensor; assay type: biochemical
T2 construct: Amyloid β (1-42) (Bachem AG, Budendorf, Switzerland); purchased Bachem AG
T2 sequence (P05067 672-713): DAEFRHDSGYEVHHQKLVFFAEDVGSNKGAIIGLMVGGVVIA
Experimental: as §1, §2
In FIG. 1, a place where the line uprises from the horizontal state (i.e. steady state), means a point where tension is given to the sample film, and compliance is detected where the line oscillates. […] It is assumed that the particular interaction referred herein is aggregation of amyloid β (1-42) caused by Zn^2+, when considered with many reports such as X. Huang et. al., (J. Biol. Chem., 1997, 272, 26464), C. S. Atwood et. al., (J. Biol. Chem., 1998, 273, 12817), or R. A. Cherny et. al., (Neuron, 2001, 30, 665).
Further, concentration of ZnCl2 was altered from 0.01 mM to 3 mM, in order to examine the effect of ZnCl2 concentration (FIG. 2).
An amyloid β (1-42) membrane was prepared and placed on a detecting apparatus, as described in EXAMPLE 1. The changes in tension and elasticity of the membrane, by CuCl2 dissolved in the buffer solution, were examined (FIG. 3). […] It has been reported that Cu^2+, as well as Zn^2+, facilitates aggregation of amyloid β.

change in tension and elasticity of the α-synuclein film by ZnCl2 (α-synuclein; ZnCl2 dissolved in the buffer solution): concentration-dependent change | change in elasticity with respect to ZnCl2 concentration (amyloid β (1-42); ZnCl2 0.01 mM to 3 mM, FIG. 2): concentration-dependent | isotropic tension and compliance (the inverse of stiffness) of the amyloid β (1-42) film (amyloid β (1-42); ZnCl2 solution in 10 mM Hepes pH7.4, 0.15 M NaCl passed over the film, FIG. 1): remarkably increased
Compound: [Cl-].[Cl-].[Zn+2] [ZnCl2]

tension and elasticity of the film after EDTA, relative to the state prior to addition of ZnCl2 (amyloid β (1-42); amyloid β (1-42) film previously exposed to ZnCl2, FIG. 1): restored
Compound: O=C(O)CN(CCN(CC(=O)O)CC(=O)O)CC(=O)O [EDTA]
tension after EDTA, relative to the state prior to addition of ZnCl2 (α-synuclein; α-synuclein film previously exposed to ZnCl2): restored by EDTA almost to the state prior to addition of ZnCl2 | tension after EDTA, relative to the state prior to addition of CuCl2 (amyloid β (1-42); amyloid β (1-42) membrane previously exposed to CuCl2, FIG. 3): restored by EDTA almost to the state prior to addition of CuCl2

change in tension and elasticity of the amyloid β (1-42) membrane by CuCl2 (amyloid β (1-42); CuCl2 dissolved in the buffer solution, FIG. 3): concentration-dependent change
Compound: [Cl][Cu][Cl] [CuCl2]
